Assay results: the NIST ThermoML archive (doi:10.1007/s10765-010-0768-y)

Assay: xn = mol fraction of the nth substance listed
Settings: 101 kPa, Liquid, Pycnometric method

C=CC(=O)OCCCC [butyl 2-propenoate] + Cc1cc(C)cc(C)c1
mass density [kg/m3]
Settings	288.15 K	293.15 K	298.15 K	303.15 K	308.15 K	313.15 K	318.15 K
x1 = 0.0724	871.63	867.64	863.65	859.66	855.67	851.68	847.69
x1 = 0.1414	873.88	869.82	865.76	861.7	857.64	853.58	849.52
x1 = 0.2135	876.24	872.11	867.99	863.87	859.75	855.63	851.51
x1 = 0.2846	878.6	874.42	870.24	866.06	861.88	857.71	853.54
x1 = 0.3512	880.84	876.6	872.37	868.14	863.91	859.68	855.45
x1 = 0.4223	883.26	878.97	874.68	870.39	866.1	861.81	857.53
x1 = 0.4998	885.94	881.58	877.22	872.87	868.52	864.17	859.82
x1 = 0.5724	888.47	884.05	879.63	875.21	870.8	866.39	861.98
x1 = 0.6578	891.46	886.97	882.48	877.99	873.5	869.02	864.54
x1 = 0.7131	893.41	888.87	884.33	879.8	875.27	870.74	866.21
x1 = 0.7823	895.86	891.26	886.66	882.07	877.48	872.89	868.3
x1 = 0.8563	898.49	893.83	889.17	884.52	879.87	875.22	870.57
x1 = 0.9295	901.09	896.38	891.67	886.96	882.26	877.56	872.86
x1 = 1	903.6	898.85	894.1	889.35	884.6	879.85	875.1
